Test results from PMC11468294, “Peptide Amphiphiles as Biodegradable Adjuvants for Efficient Retroviral Gene Delivery” (Advanced Healthcare Materials, 2023).
“Also recorded” adds a separate entry of the source. Where a SMILES comes first, the peptide text is derived from it. The star is where a group is joined. X2 = CC/C=C\C/C=C\C/C=C\C/C=C\C/C=C\CCCC(=O)*; X1 = CC/C=C\C/C=C\C/C=C\CCCCCCCC(=O)*; Fmoc = O=C(OCC1c2ccccc2-c2ccccc21)*; Palmitoyl = CCCCCCCCCCCCCCCC(=O)*; Lauroyl = CCCCCCCCCCCC(=O)*

Tests used:
[1] = TEM morphology of peptide assemblies; type: physicochemical; details: diluted from DMSO stock (10 mg mL-1) to 1 mg mL-1 in PBS, incubated 1 d at rt
Description: (§1) Transmission electron microscopy (TEM) measurements, Thioflavin (ThT), zeta‐potential measurements for fibril characterization, ATR‐IR spectra acquisition and the calculation of β−sheet were prepared and conducted analogous to a previous report.^[ [20], [86] ^] […] Fibrils were defined as distinct, if no visible structures could be identified in fluorescence and brightfield microscopy. […] The derived count rate of the zeta‐potential measurement was used as information on the light scattering intensity and turbidity of the sample as a further indicator for microscopic aggregation.^[ [90] ^]
TEM: 5 µL of fibrils (1 mg mL^−1) were placed on 300 mesh, Formvar layered copper grids. After 10 min incubation time, the grids were staining with 4% uranyl acetate solution for 2.5 min. After
three washing steps with dd H2O excess solvent was removed by filter paper. Measurements
were performed on a Jeol 1400 electron microscope with 120 kV acceleration voltage.

HeLa cells = type: in vitro ADME; details: for degradability by cells (in words): HeLa cells, 2 µg peptide added to 20,000 cells, d0 (30 min) vs d3, degradable if number and size of aggregates are reduced after 3 days
Description: Confocal laser scanning microscopy and degradation study with PA library and HeLa cells: Confocal laser scanning microscopy studies were performed for the visualization of the cell‐PA interaction. HeLa cells were seeded one day prior to conducting the assay (20000/well) in an 8‐well IBIDI slide. 2 µL of the preformed peptide fibrils (1 mg mL^−1) were diluted with 2 µL Proteostat (Enzo Life Science, 1 µL stock in 99 µL PBS) and incubated for 10 min and further diluted with medium to receive a final peptide concentration of 10 µg mL^−1. The nucleus of the HeLa cells was stained with Hoechst 33 342 (NucBlue, Thermo Fisher Scientific). The peptide solution mixture was transferred to the HeLa cells and incubated for 30 min at 37°C before washing three times with PBS. The interaction of fibril clusters with cells was monitored after 30 min incubation time on a Stellaris 8 confocal laser scanning microscope (Leica) equipped with a 20x air objective and laser excitation wavelengths of 405 nm (Hoechst), and 561 nm (Proteostat). For the evaluation of aggregate degradation, the samples were further incubated at 37°C for 3 d and analyzed without any additional washing step. The evaluation of aggregate size and number was conducted by analyzing Proteostat stained aggregates via the 3D objects counter function of ImageJ 1.53f51 for 3 individual measurements (area 1008 µm × 1008 µm). […] The number of aggregates were determined by counting aggregates larger than the threshold 10 µm^2 in an area of 1008 µm × 1008 µm and repeated in three technical triplicates.
(§2) 7 Effects of PA modifications on properties and activity
(§3) To investigate the effects of modification in the PA sequence, we created various peptide amphiphiles derived from PA1 by varying the (I) hydrophobic moiety, (II) the linkage chemistry and (III) the peptide sequence (Figure S12, SI chapter 7.1 – 7.3). The color code for sequence representation is yellow for the hydrophobic moiety, blue for cationic amino acids, red for non-polar amino acids, purple for polar uncharged amino acids, and green for anionic amino acids. To be concise, only the summarized information will be discussed, all original data for the peptides are summarized in the (Figure S26 - […]
(§4) Figure S12 Summarized overview of peptide amphiphile library in which systematic variations the original sequence […]
(§5) chemistry and (III) the peptide sequence on infectivity enhancement and degradability (see SI chapter 7.1 – 7.3).
(§6) In the following section a compound is considered infectivity enhancing if n-fold infectivity at 1.3 µM is larger than 2. A compound is considered to form µm-sized aggregates if visible particles were observed in widefield microscopy (brightfield or ThT-staining filter, objective 10x) or confocal […]
(§7) than 1000 kcps in Zeta-Potential measurements.
(§8) For the degradability only the PAs which could be stained with Proteostat (Figure S26) and were visible in microscopy (Figure S15, Figure S18, Figure S21, and Figure S22) were studied in detail. To determine […]
whether a PA is degraded or not, Proteostat stained PAs which are added to Hela cells (2 µg peptide added to 20.000 cells) and studied via confocal laser scanning microscopy. Microscopy is conducted at day 0 (d0, after 30 min of incubation) and at day 3 (d3, after 72 h of incubation). The number of aggregates >10 µm2 is counted via 3D object counter in ImageJ in an area of 1008 µm × 1008 µm.
A PA is considered as degradable if the number and the size of aggregates are reduced after 3 days.
The efficiency is determined by the percentual degradation (aggregate number at d3 / aggregate number at d0). Three technical replicates were evaluated for each sample. A large deviation in number and size of aggregates represents a nonhomogeneous distribution and polymorphism of aggregates.

[2] = test system: HIV-1 infection of TZM-bl cells; assay: HIV-1 infection assay (β-galactosidase luminescence reporter); type: cell-based
Description: HIV‐1 Infection Assay: The effect of peptide fibrils on HIV‐1 infection was studied via a luminescence assay for β‐galactosidase, which was reported by TZM‐bl cells upon infection. 10000 TZM‐bl cells were seeded in 180 µl supplemented DMEM one day prior infection. The cells were inoculated with 20 µl PNF solution 1:1 (v/v) mixed with virus (1:500 dilution) after an incubation time of 10 min. The HIV‐1 infection assay was conducted in three technical replicates and repeated in three independent experiments unless stated otherwise. The assay was conducted as described before.^[ [20] ^]

[3] = Microscopic aggregation (fluorescence / confocal microscopy, derived count rate); type: physicochemical; details: fibrils preformed at 1 mg mL-1 in PBS; ThT or Proteostat stain, widefield or confocal microscopy; derived count rate > 1000 kcps as criterion
Description: as §1
Fluorescence microscopy: 1 µL Fibrils (1 mg mL^−1) were stained with 9 µL, 50 µM ThT. 10 µL of the stained fibrils (0.1 mg mL^−1) were placed on a microscopy glass. Fluorescence microscopy measurements were performed on a Leica DMi8 microscope with 10x air objective and equipped with a Leica MC170 HD camera with a filter setting λem = 527/30 nm upon excitation at λex = 480/40 nm) and processed with the Leica LASX software.
as §2, §3, §4, §5, §6, §7, §8
whether a PA is degraded or not, Proteostat stained PAs which are added to Hela cells (2 µg peptide added to 20.000 cells) and studied via confocal laser scanning microscopy. […]
In the following, we will distinguish between three aggregation types for fibrillar structures: Fibrils which were not aggregating (below resolution limit of the microscope, approx. 650 nm), moderately aggregating (< 50 µm2) and aggregating to large particles (> 50 µm 2).
7.1 Effects of hydrophobic moiety exchange on properties and activity
To investigate the effects of varying hydrophobic moieties on assembly, aggregation and activity , we

[4] = Zeta-potential measurement; type: physicochemical; details: 1 mg mL-1 in PBS, diluted in 1 mM KCl
Description: Zeta‐potential: 60 µL of the peptides (1 mg mL^−1) were diluted in 600 µL, 1 mM KCl solution and placed in a disposable folded capillary cuvette. All zeta‐potential measurements (Zetasizer, Malvern Instruments) were conducted in triplicates for each sample.

[5] = infectivity enhancing if n-fold at 1.3 µM larger than 2

| SMILES | morphology of peptide assemblies / fibril formation (TEM) [1] | degradability by cells (in words) (HeLa cells) | infectivity enhancement of HIV-1 (in words) [2, 5] | formation of µm-sized aggregates (in words) [3] | average size of aggregates (HeLa cells; Proteostat-stained PA with HeLa cells, confocal aggregate analysis) | morphology of peptide assemblies / fibril formation (TEM) ([1]; listed as alpha linolenic acid) | zeta-potential (in words) [4] | infectivity enhancement of HIV-1 (in words) ([2]; infectivity enhancing if n-fold at 1.3 µM larger than 2, listed as alpha linolenic acid) |
| --- | --- | --- | --- | --- | --- | --- | --- | --- |
| CC(C)[C@H](NC(=O)OCC1c2ccccc2-c2ccccc21)C(=O)N[C@H](C(=O)N[C@H](C(=O)N[C@@H](C)C(=O)N[C@@H](C)C(=O)N[C@@H](C)C(=O)N[C@@H](CCCCN)C(=O)N[C@@H](CCCCN)C(=O)N[C@@H](CCCCN)C(N)=O)C(C)C)C(C)C (Fmoc-VVVAAAKKK-NH2) | forming fibrils | cannot be degraded by cells | active | very large |  |  |  |  |
| CCCCCCCCCCCCCCCC(=O)N[C@@H](Cc1c[nH]c2ccccc12)C(=O)N[C@@H](CCC(=O)O)C(=O)N[C@@H](C)C(=O)N[C@@H](CC(C)C)C(=O)N[C@@H](CCCCN)C(=O)N[C@@H](CCCCN)C(N)=O [C16-WEALKK-NH2] (Palmitoyl-WEALKK-NH2) | not forming fibrils; also recorded: cannot self‐assemble into fibrils |  | Inactive | not forming µm-sized aggregates and forming too few/less aggregates, respectively |  |  |  |  |
| CCCCCCCCCCCCCCCC(=O)N[C@@H](CCCCN)C(=O)NCC(=O)N[C@H](C(=O)N1CCC[C@H]1C(=O)NCC(=O)N[C@H](C(=O)NCC(=O)N[C@@H](CCCCN)C(N)=O)C(C)C)C(C)C (Palmitoyl-KGVPGVGK-NH2) | not forming fibrils; also recorded: cannot self‐assemble into fibrils |  | Inactive | not forming µm-sized aggregates and forming too few/less aggregates, respectively |  |  |  |  |
| CCCCCCCCCCCC(=O)N[C@H](C(=O)N[C@H](C(=O)N[C@H](C(=O)N[C@@H](C)C(=O)N[C@@H](C)C(=O)N[C@@H](C)C(=O)N[C@@H](CCCCN)C(=O)N[C@@H](CCCCN)C(=O)N[C@@H](CCCCN)C(N)=O)C(C)C)C(C)C)C(C)C [C12] (Lauroyl-VVVAAAKKK-NH2) |  | partially degraded | efficient infectivity enhancement | large aggregate formation |  |  |  |  |
| CCCCCCCCCCCCCCCC(=O)N[C@@H](CCCNC(=N)N)C(=O)N[C@@H](CCCNC(=N)N)C(=O)N[C@@H](Cc1c[nH]c2ccccc12)C(=O)N[C@@H](CCC(N)=O)C(=O)N[C@@H](Cc1c[nH]c2ccccc12)C(=O)N[C@@H](CCCNC(=N)N)C(N)=O [C16-RRWQWR-NH2] (Palmitoyl-RRWQWR-NH2) |  |  | Inactive | not forming µm-sized aggregates and forming too few/less aggregates, respectively; also recorded: cannot form µm‐sized aggregates |  |  |  |  |
| CC/C=C\C/C=C\C/C=C\C/C=C\C/C=C\CCCC(=O)N[C@H](C(=O)N[C@H](C(=O)N[C@H](C(=O)N[C@@H](C)C(=O)N[C@@H](C)C(=O)N[C@@H](C)C(=O)N[C@@H](CCCCN)C(=O)N[C@@H](CCCCN)C(=O)N[C@@H](CCCCN)C(N)=O)C(C)C)C(C)C)C(C)C (X2-VVVAAAKKK-NH2) | structures composed of fibrillar structures | degradable PA |  |  | 6-7 µm2 |  |  |  |
| CCCCCCCCCCCCCCCC(=O)N[C@@H](C)C(=O)NCC(=O)N[C@@H](C)C(=O)NCC(=O)N[C@@H](CCCNC(=N)N)C(=O)N[C@@H](CCCNC(=N)N)C(=O)N[C@@H](CCCNC(=N)N)C(N)=O [C16-AGAGRRR-NH2] (Palmitoyl-AGAGRRR-NH2) |  |  | Inactive | not forming µm-sized aggregates and forming too few/less aggregates, respectively; also recorded: cannot form µm‐sized aggregates |  |  |  |  |
| CCCCCCCCCCCCCCCC(=O)NCC(=O)NCC(=O)N[C@H](C(=O)N[C@H](C(=O)N[C@@H](CCCNC(=N)N)C(=O)N[C@@H](CCCNC(=N)N)C(N)=O)C(C)C)C(C)C [C16-GGVVRR-NH2] (Palmitoyl-GGVVRR-NH2) |  |  | Inactive | not forming µm-sized aggregates and forming too few/less aggregates, respectively; also recorded: cannot form µm‐sized aggregates |  |  |  |  |
| CC/C=C\C/C=C\C/C=C\CCCCCCCC(=O)N[C@H](C(=O)N[C@H](C(=O)N[C@H](C(=O)N[C@@H](C)C(=O)N[C@@H](C)C(=O)N[C@@H](C)C(=O)N[C@@H](CCCCN)C(=O)N[C@@H](CCCCN)C(=O)N[C@@H](CCCCN)C(N)=O)C(C)C)C(C)C)C(C)C (X1-VVVAAAKKK-NH2) | cannot self‐assemble into fibrils |  | Inactive | do not aggregate |  | neither forming fibrils, nor it is aggregating or active | neutral zeta-potential | not able to maintain activity |
